Source: PubChem BioAssay AID2060349 (Molecular Pharmacology Branch, DTP, NCI, 2025)

System: 762968-020-R-J2-PDC spheroids viability
Experiment: Anticancer human tumor 762968-020-R-J2-PDC patient-derived colon carcinoma cell line growth inhibition [TAK]
Conditions: spheroids with HUVEC and MSC; for IC50: curve of first compound; for viability, T/C: stronger effect = lower value
Description: Combinatorial screen of targeted agents with TAK-243 and ipatasertib in multi-cell type tumor spheroids
A high-throughput screen of multi-cell type tumor spheroids was designed to identify active combinations of targeted small molecules and TAK-243 or ipatasertib. Complex spheroids include a stromal component modeled by human endothelial cells (HUVEC) and fibroblasts modeled by human mesenchymal stem cells (MSCs). The concentration ranges selected for each drug and investigational agent were based upon clinically achievable concentrations if the clinical Cmax of the agent was known.
Compounds. The drugs and investigational agents: TAK-243 (785004), ipatasertib (767898), everolimus (733504), selumetinib (741078), bortezomib (756655), trametinib (758246), ixazomib (758254), vemurafenib (761431), dabrafenib (764134), sapanisertib (764658), alpelisib (765974), and copanlisib (816437), were obtained from the National Cancer Institute (NCI) Developmental Therapeutics Program Chemical Repository. The FDA-approved anticancer drug set is available from the NCI Developmental Therapeutics Program. […] The stock solutions were prepared in dimethyl sulfoxide (DMSO, Sigma-Aldrich, St. Louis, MO, cat. D2650) at 800-fold the tested concentration and stored at -70 degrees C prior to their use. All drugs and investigational agents were tested over a range starting from a high concentration at or near the clinical Cmax and decreasing in half-log increments. If the clinical Cmax for an agent had not been determined, the highest concentration tested was 10 microM.
NCI60 Cell Culture. NCI60 cell lines were obtained from the NCI Developmental Therapeutics Program Tumor Repository. For each lot of cells, the Repository performed Applied Biosystems AmpFLSTR Identifiler testing with PCR amplification to confirm consistency with the published Identifier STR profile for each cell line. Cells were kept in continuous culture for no more than 20 passages. The optimal seeding densities for each of the cell lines at each time point assessed were determined prior to performing the concentration response studies. Briefly, the NCI60 human tumor lines were grown as monolayers in RPMI 1640 medium supplemented with 10% FBS and 2 mmol/L L-glutamine.
An additional 2 lines were from the NCI60 cell line panel including melanomas, MALME-3M and SK-MEL-2. Pooled donor human umbilical vein endothelial cells (HUVEC, Lonza, cat. CC-2519) and human mesenchymal stem cells (hMSC, Lonza, cat. PT-2501) were purchased from Lonza (Walkersville, MD).
PDMR cell lines were grown in complete medium (DC medium): Dulbecco's modified Eagle's medium (DMEM)/F12 supplemented with 5% fetal bovine serum (FBS), 2 mM L-glutamine, 100 U/mL penicillin and 100 µg/ml streptomycin, 0.4 µg/ml hydrocortisone, 10 ng/ml epidermal growth factor (EGF) recombinant human protein, 24 µg/mL adenine, and 0.1 mg/mL primocin. During culture from frozen stock vials, PDMR cells were cultured in the same medium containing 10 µM Y-27632 (see Table 3). The PDCs were cultured in complete DMEM/F12 media without 10 microM Y-27632 dihydrochloride for at least two passages prior to the screen. The pooled donor HUVEC and hMSC were cultured in endothelial cell growth medium 2 (PromoCell, Heidelberg, Germany, cat. C-22011) and mesenchymal stem cell growth medium 2 (PromoCell, cat. C-28009), respectively. For all experiments, HUVEC and hMSC were used at passages </=5.
For the pre-screen, cell seeding densities were determined from a titration spanning the range from 5,000 to 313 cells per well. The mct-spheroids including 60% malignant cells, 25% HUVEC and 15% MSC dispensed as a mixture into U-bottom Ultra-Low Attachment 384-well plates (Corning, NY)
High-throughput Drug Combination Screening.
Prior to their inoculation into 384-well plates, malignant cells, HUVEC, and hMSC were removed from T flasks using TrypLE express (Thermo Fisher Scientific, cat. 12605036) and harvested by centrifugation for 5 min at 233 x g. […]
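Also: spheroids exposed to drug for 7 days before readout.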
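For viability, T/C in this document: 100% = DMSO vehicle control wells.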

CC(=O)Nc1cccc(-n2c(=O)n(C3CC3)c(=O)c3c(Nc4ccc(I)cc4F)n(C)c(=O)c(C)c32)c1 + CC(C)NCC(C(=O)N1CCN(c2ncnc3c2C(C)CC3O)CC1)c1ccc(Cl)cc1
IC50 (second compound 0.3 µM): 20.2 nM
IC50 (second compound 0.949 µM): 20.8 nM
IC50 (second compound 3 µM): 23.1 nM
IC50 (second compound 9.49 µM): 17.7 nM
IC50 (second compound 30 µM): 16.2 nM
viability, T/C (second compound 0.3 µM, first compound 94.9 pM): 98.7%
viability, T/C (second compound 0.3 µM, first compound 0.0003 µM): 104%
viability, T/C (second compound 0.3 µM, first compound 0.000949 µM): 91.6%
viability, T/C (second compound 0.3 µM, first compound 0.003 µM): 82.2%
viability, T/C (second compound 0.3 µM, first compound 0.00949 µM): 70.1%
viability, T/C (second compound 0.3 µM, first compound 0.03 µM): 39.7%
viability, T/C (second compound 0.949 µM, first compound 94.9 pM): 92.9%
viability, T/C (second compound 0.949 µM, first compound 0.0003 µM): 98.1%
viability, T/C (second compound 0.949 µM, first compound 0.000949 µM): 91.8%
viability, T/C (second compound 0.949 µM, first compound 0.003 µM): 96%
viability, T/C (second compound 0.949 µM, first compound 0.00949 µM): 74.5%
viability, T/C (second compound 0.949 µM, first compound 0.03 µM): 38.5%
viability, T/C (second compound 3 µM, first compound 94.9 pM): 101%
viability, T/C (second compound 3 µM, first compound 0.0003 µM): 103%
viability, T/C (second compound 3 µM, first compound 0.000949 µM): 97.4%
viability, T/C (second compound 3 µM, first compound 0.003 µM): 90.2%
viability, T/C (second compound 3 µM, first compound 0.00949 µM): 80.2%
viability, T/C (second compound 3 µM, first compound 0.03 µM): 41.1%
viability, T/C (second compound 9.49 µM, first compound 94.9 pM): 96.1%
viability, T/C (second compound 9.49 µM, first compound 0.0003 µM): 99.1%
viability, T/C (second compound 9.49 µM, first compound 0.000949 µM): 95.6%
viability, T/C (second compound 9.49 µM, first compound 0.003 µM): 80.6%
viability, T/C (second compound 9.49 µM, first compound 0.00949 µM): 67.3%
viability, T/C (second compound 9.49 µM, first compound 0.03 µM): 36.3%
viability, T/C (second compound 30 µM, first compound 94.9 pM): 90.3%
viability, T/C (second compound 30 µM, first compound 0.0003 µM): 87.7%
viability, T/C (second compound 30 µM, first compound 0.000949 µM): 80.3%
viability, T/C (second compound 30 µM, first compound 0.003 µM): 71.4%
viability, T/C (second compound 30 µM, first compound 0.00949 µM): 60.9%
viability, T/C (second compound 30 µM, first compound 0.03 µM): 38.8%

Cc1nc(NC(=O)N2CCCC2C(N)=O)sc1-c1ccnc(C(C)(C)C(F)(F)F)c1 (stereo not given) + CC(C)NCC(C(=O)N1CCN(c2ncnc3c2C(C)CC3O)CC1)c1ccc(Cl)cc1
IC50 (second compound 0.3 µM): > 10000 nM
IC50 (second compound 0.949 µM): > 10000 nM
IC50 (second compound 3 µM): > 10000 nM
IC50 (second compound 9.49 µM): > 10000 nM
IC50 (second compound 30 µM): > 10000 nM
viability, T/C (second compound 0.3 µM, first compound 0.0316 µM): 119%
viability, T/C (second compound 0.3 µM, first compound 0.1 µM): 109%
viability, T/C (second compound 0.3 µM, first compound 0.316 µM): 99.4%
viability, T/C (second compound 0.3 µM, first compound 1 µM): 92.5%
viability, T/C (second compound 0.3 µM, first compound 3.16 µM): 98.8%
viability, T/C (second compound 0.3 µM, first compound 10 µM): 89.7%
viability, T/C (second compound 0.949 µM, first compound 0.0316 µM): 113%
viability, T/C (second compound 0.949 µM, first compound 0.1 µM): 111%
viability, T/C (second compound 0.949 µM, first compound 0.316 µM): 97.2%
viability, T/C (second compound 0.949 µM, first compound 1 µM): 102%
viability, T/C (second compound 0.949 µM, first compound 3.16 µM): 99.5%
viability, T/C (second compound 0.949 µM, first compound 10 µM): 94.6%
viability, T/C (second compound 3 µM, first compound 0.0316 µM): 108%
viability, T/C (second compound 3 µM, first compound 0.1 µM): 109%
viability, T/C (second compound 3 µM, first compound 0.316 µM): 108%
viability, T/C (second compound 3 µM, first compound 1 µM): 102%
viability, T/C (second compound 3 µM, first compound 3.16 µM): 94.4%
viability, T/C (second compound 3 µM, first compound 10 µM): 99.7%
viability, T/C (second compound 9.49 µM, first compound 0.0316 µM): 110%
viability, T/C (second compound 9.49 µM, first compound 0.1 µM): 108%
viability, T/C (second compound 9.49 µM, first compound 0.316 µM): 105%
viability, T/C (second compound 9.49 µM, first compound 1 µM): 106%
viability, T/C (second compound 9.49 µM, first compound 3.16 µM): 94%
viability, T/C (second compound 9.49 µM, first compound 10 µM): 89.6%
viability, T/C (second compound 30 µM, first compound 0.0316 µM): 78.6%
viability, T/C (second compound 30 µM, first compound 0.1 µM): 81.5%
viability, T/C (second compound 30 µM, first compound 0.316 µM): 81.8%
viability, T/C (second compound 30 µM, first compound 1 µM): 75.7%
viability, T/C (second compound 30 µM, first compound 3.16 µM): 74.3%
viability, T/C (second compound 30 µM, first compound 10 µM): 69.8%
